Test in all cases: NCI-60 cell line screen, 48 h
The subject of assay [1] is DMS-114.
For assay [2], the system named is KM-20L2.
The subject of assay [3] is HOP-18.
Assay [4] deals with RXF 631.
Assay [5] concerns DMS-273.
The subject of assay [6] is M19-MEL.
In assay [7] the test system is SNB-78.
Assay [8] has as its system DLD-1.
Assay [9] relates to XF498.

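Five concentrations, 48 hours, 96-well plates. GI50 = concentration required for 50% inhibition of growth.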 Activity calls are given as the source filed them. Cut-off read from the data, not from the text of the source: active = GI50 up to about 1.1 µM and inactive = higher.

For `C/C(=N\NC(N)=O)C(CN1CCCCC1)C(c1ccccc1)c1c(O)c2ccccc2oc1=O` (centres undefined), the GI50 in assay [1], in assay [2], in assay [3], in assay [4], in [5] and in assay [6] was > 100 µM (inactive) in each case. Also, the GI50 in assay [7] and in [8] was > 100 µM (inactive) in each case.
Turning to `COc1ccc2c(CCNS(=O)(=O)c3ccccc3)c(C(C)=O)[nH]c2c1[N+](=O)[O-]`, the GI50 was > 100 µM (inactive) in [2], 41.4 µM (inactive) in assay [4], > 100 µM (inactive) in assay [5] and 48.5 µM (inactive) in assay [7].
For `O=C1Nc2cc(Cl)ccc2N=CC1NC(=O)C(c1ccccc1)c1ccccc1Cl` (centres undefined), the GI50 in [1] is > 100 µM (inactive); in assay [2], > 100 µM (inactive); in assay [3], 27.5 µM (inactive); in assay [4], > 100 µM (inactive); in [5] it was > 100 µM (inactive); in [6] it was > 100 µM (inactive). Also, the GI50 in [7] and in assay [8] was > 100 µM (inactive) each time.
Turning to `CN(C)CCCSc1c2ccccc2nc2cc(NCC(=O)Nc3ccccc3-c3ccccc3NC(=O)CNc3ccc4c(SCCCN(C)C)c5ccccc5nc4c3)ccc12`, the GI50 was > 100 µM (inactive) in assay [1]; > 100 µM (inactive) in assay [2]; > 100 µM (inactive) in assay [3]; 71.8 µM (inactive) in assay [9]; > 100 µM (inactive) in assay [5]; 49.7 µM (inactive) in [6]. Also, the GI50 in [7] and in assay [8] was > 100 µM (inactive) throughout.
For `CCOC(=O)C(=Cc1ccc(C(=O)OC)cc1)C(=O)OCC`, the GI50 in assay [1] is 1.66 µM (inactive); in assay [2] it was 0.845 µM (active); in [3], 3.49 µM (inactive); in assay [5], 1.71 µM (inactive); in assay [6], 2.75 µM (inactive); in [8] it was 2.12 µM (inactive).
Turning to `O=C(CC(=O)Nc1cccc(Cl)c1)NNCC(=O)Nc1nnc(-c2ccccc2)s1`, the GI50 was 24.4 µM (inactive) in [1]; > 100 µM (inactive) in [2]; 3.62 µM (inactive) in assay [3]; 17.7 µM (inactive) in assay [9]; > 100 µM (inactive) in assay [4]; 38.4 µM (inactive) in assay [5]. The GI50 in [6] was > 100 µM (inactive); in assay [7] it was 97.9 µM (inactive); in assay [8], 58.6 µM (inactive).
Consider `COC1/C=C/OC2(C)Oc3c(C)c(O)c4c(c3C2=O)C(=O)C=C(NC(=O)/C(C)=C\C=C\C(C)C(OC=O)C(C)C(O)C(C)C(OC(C)=O)C1C)C4=O` (centres undefined), for which the GI50 in assay [1] is 16.8 µM (inactive); in assay [2], 18.2 µM (inactive); in [3] it was 5.36 µM (inactive); in assay [9], 4 µM (inactive); in [4], 15.7 µM (inactive); in assay [5], 16.9 µM (inactive). The GI50 in [6] is 13.1 µM (inactive); in assay [7], 20.1 µM (inactive); in assay [8], 9.89 µM (inactive).
As for `COc1ccc(-c2cc(Cc3cccs3)c(=O)[nH]n2)cc1`, the GI50 was 74.6 µM (inactive) in assay [1]; 85.5 µM (inactive) in [2]; > 100 µM (inactive) in [5]; 40.3 µM (inactive) in assay [6]; > 100 µM (inactive) in assay [7].
On to `O=C(CO[N+](=O)[O-])OCC(=O)c1ccccc1`, for which the GI50 in assay [2], in assay [4], in assay [5], in assay [6] and in assay [8] was > 100 µM (inactive) throughout.
Regarding `CC(C)C(Nc1c2ccccc2[n+]([O-])c2ccccc12)C(=O)O` (centres undefined), the GI50 in assay [1] was 36.2 µM (inactive); in assay [2] it was > 100 µM (inactive); in [3], 19.4 µM (inactive); in [4] it was > 100 µM (inactive); in assay [5] it was 61.9 µM (inactive); in [6] it was 88.5 µM (inactive). Besides, the GI50 in assay [7] is > 100 µM (inactive); in assay [8], 37.7 µM (inactive).
On to `Cn1c(=O)c2[nH]cnc2n(CC(N)=O)c1=O`, for which the GI50 in [1], in assay [9], in assay [5], in [6], in assay [7] and in assay [8] was > 100 µM (inactive) throughout.
Consider `O=C(Nc1ccc(Cl)c(Cl)c1)C(=O)Nn1c(S)nc2ccccc2c1=O`, for which the GI50 in [1], in assay [2], in [3], in [9], in [5] and in assay [6] was > 100 µM (inactive) throughout. Besides, the GI50 in assay [7] and in assay [8] was > 100 µM (inactive) in each case.
Turning to `CCOc1ccc(NC(=O)/C(Cc2nc3ccccc3nc2O)=N\O)cc1`, the GI50 in assay [1], in assay [2], in assay [5], in assay [6], in assay [7] and in [8] was > 100 µM (inactive) throughout.
On to `CC(C)C1CO[C@]2(C)CCC(=O)N12` (some centres undefined), for which the GI50 in [1], in assay [2], in assay [3], in [9], in assay [4] and in assay [6] was > 100 µM (inactive) throughout. For the same molecule, the GI50 in assay [8] was > 100 µM (inactive).
As to `CC1NOC(=O)C1/N=N/c1ccc(Cl)cc1Cl` (centres undefined), the GI50 is 24.2 µM (inactive) in assay [1]; 30.6 µM (inactive) in assay [2]; 18.5 µM (inactive) in [3]; 23.1 µM (inactive) in assay [9]; 38.2 µM (inactive) in [4]; 20.9 µM (inactive) in assay [5]. The GI50 in assay [6] was 27.2 µM (inactive); in [7] it was 26.3 µM (inactive); in [8], 33.9 µM (inactive).
Take `C/C(=N\NS(=O)(=O)c1ccc(C)cc1)C(CN1CCOCC1)C(c1ccccc1)c1c(O)c2ccccc2oc1=O` (centres undefined): the GI50 in assay [2] is > 100 µM (inactive); in assay [3] it was > 100 µM (inactive); in assay [9], > 100 µM (inactive); in assay [4], > 100 µM (inactive); in assay [6] it was 99.5 µM (inactive); in assay [7], > 100 µM (inactive). The GI50 in assay [8] is > 100 µM (inactive).
As for `COc1ccc(-c2cc(-c3ccccc3)c(C#N)c(=O)[nH]2)cc1`, the GI50 in assay [1], in [2], in [3], in assay [4], in [5] and in assay [6] was > 100 µM (inactive) throughout. Besides, the GI50 in [7] and in assay [8] was > 100 µM (inactive) each time.
Turning to `CCOC(=O)C1S/C(=N\c2ccc(Cl)cc2)N=C1C` (centres undefined), the GI50 in assay [1] is 23.8 µM (inactive); in assay [2], 19.2 µM (inactive); in assay [3], 23.3 µM (inactive); in assay [9], 20 µM (inactive); in assay [6], 17.3 µM (inactive); in assay [7], 29.2 µM (inactive). For the same molecule, the GI50 in assay [8] was 14.1 µM (inactive).
For the molecule `Cc1cc(NC(=O)NC(=O)c2ccccc2NC(=O)CN)ccc1Oc1ncc(Br)cn1`, the GI50 in [1] is 0.191 µM (active); in assay [2] it was 0.676 µM (active); in [9] it was 13.9 µM (inactive); in [5] it was 0.313 µM (active); in assay [8], 1.4 µM (inactive).
For the molecule `CCNC(=O)C#CC(=O)NCC`, the GI50 is > 72.3 µM (inactive) in assay [1]; > 100 µM (inactive) in assay [2]; > 100 µM (inactive) in assay [3]; > 100 µM (inactive) in assay [9]; > 100 µM (inactive) in assay [4]; 17.8 µM (inactive) in assay [5]. Moreover, the values for the GI50 in assay [6], in [7] and in assay [8] were > 100 µM (inactive), > 10 µM (inactive) and > 46.1 µM (inactive), respectively.
For `CN1CCN(CCNc2ccc(CO)c3sc4ccccc4c(=O)c23)CC1`, the GI50 in assay [1] is 9.57 µM (inactive); in assay [2], 4.21 µM (inactive); in assay [5], 3.21 µM (inactive); in [6], 12.2 µM (inactive); in [8] it was 11.7 µM (inactive).
As for `Cc1cc(=O)oc2cc(OCc3nc4ccccc4c(=O)n3-c3ccccc3)ccc12`, the GI50 in [1], in assay [2], in assay [3], in assay [4], in assay [5] and in assay [6] was > 100 µM (inactive) each time. In assay [8], the GI50 is > 100 µM (inactive).
Regarding `CC(C)(C)c1cc(Oc2ccc(C#N)c(C#N)c2)cc(C(C)(C)C)c1`, the GI50 in assay [1] was 42.1 µM (inactive); in [2], > 100 µM (inactive); in assay [3], > 100 µM (inactive); in assay [9], > 100 µM (inactive); in [4], 31 µM (inactive); in assay [5], 14.1 µM (inactive). Further, the GI50 in assay [6], in [7] and in assay [8] was > 100 µM (inactive) in each case.
Consider `Nn1c(S)nnc1NNC(=O)C(=O)Nc1cc(Cl)c(Cl)cc1Cl`, for which the GI50 in [1] is > 100 µM (inactive); in assay [2] it was > 100 µM (inactive); in assay [3] it was 71.1 µM (inactive); in assay [9], 90.4 µM (inactive); in assay [6], > 100 µM (inactive); in assay [7], > 100 µM (inactive). The GI50 in assay [8] was > 100 µM (inactive).
For `CCN(CC)CC(C(=O)Nc1c(C)cccc1C)/C(C)=N\NC(=O)C[N+](C)(C)C` (centres undefined), the GI50 in [1], in [2], in assay [9], in assay [5], in [6] and in [7] was > 100 µM (inactive) in each case. Moreover, the GI50 in assay [8] was > 100 µM (inactive).
Consider `O=c1n(CC2CO2)c(=O)n(CC2CO2)c(=O)n1CC1CO1` (centres undefined) [TEROXIRONE], for which the GI50 in assay [1] was 11.4 µM (inactive); in [2], 68.5 µM (inactive); in [3], 91.8 µM (inactive); in assay [5], 1.16 µM (inactive); in assay [6], 53.7 µM (inactive); in assay [7], 110 µM (inactive). The GI50 in assay [8] was 62.1 µM (inactive).

The record behind these values is ChEMBL document CHEMBL1201862, “PubChem BioAssay data set” (2004).
